Legend:
[1] = Lipophilicity, log D of the compound at pH 7.4 by chromatographic method; format: physicochemical; conditions: buffer
[2] = Half life in iv dosed rat; format: ADME, organism-based; conditions: in vivo
[3] = Permeability of the compound by PAMPA; format: ADME; conditions: read-out: permeability
[4] = Volume of distribution at steady state in iv dosed rat; format: ADME, organism-based; conditions: in vivo, read-out: Vdss
[5] = Clearance in iv dosed rat; format: ADME, organism-based; conditions: in vivo
[6] = Stability in minipig Hepatocyte assessed as clearance; format: ADME, cell-based, Sus scrofa; conditions: pig, hepatocytes; read-out: CLH
[7] = Stability in minipig microsomes assessed as clearance; format: ADME, Sus scrofa, Microsome; conditions: pig
[8] = Unbound clearance in iv dosed rat; format: ADME, organism-based; conditions: in vivo
[9] = Solubility of the compound by CLND method; format: physicochemical
[10] = Dissociation constant, pKa of compound; format: physicochemical

chromatographic logD [1] | half-life [2] | Papp [3] | Vd [4] | clearance [5] | CLint scaled [6] | CLint scaled [7] | CL free [8] | solubility kinetic [9] | pKa [10] | SMILES
4.3 | 1.5 h | 53 ×10⁻⁶ cm/s | 1.8 L/kg | 12.3 mL/min/kg | < 0.89 mL/min/kg | 0.92 mL/min/kg | 192 mL/min/kg | ≥ 331 µM | 5.7 | COc1ncc2cc1NS(=O)(=O)CCN(C)Cc1ccc3c(c1)N2CCO3
1.6 | 0.6 h | 14 ×10⁻⁶ cm/s | 8.5 L/kg | 233 mL/min/kg | < 0.89 mL/min/kg | 1.63 mL/min/kg | 587 mL/min/kg | ≥ 406 µM | 9.4 | COc1ncc(N2CCOc3ccc(CN(C)C)cc32)cc1NS(C)(=O)=O
